Laboratory results as given in ChEMBL document CHEMBL1201862, “PubChem BioAssay data set” (2004).
The source made the active and inactive calls.

Assays:
[1] = target: T1, Sentrin-specific protease 8 (Homo sapiens, UniProt Q96LD8); format: functional;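 note: luminescence read-out of SENP8 inhibition, dose-response confirmation following an ultra-high-throughput screen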
T1 sequence (Q96LD8 whole entry): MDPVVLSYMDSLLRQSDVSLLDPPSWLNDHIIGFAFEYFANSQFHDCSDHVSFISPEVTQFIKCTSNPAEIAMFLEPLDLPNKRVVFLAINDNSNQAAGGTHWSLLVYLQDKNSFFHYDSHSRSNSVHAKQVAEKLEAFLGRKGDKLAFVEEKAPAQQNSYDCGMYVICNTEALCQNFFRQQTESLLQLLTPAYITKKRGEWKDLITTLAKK

[2] = target: T2, Tyrosyl-DNA phosphodiesterase 2 (Homo sapiens, UniProt O95551); test: human TDP2 enzyme inhibitors, dose response, biochemical, epi absorbance, IC50 (AID 743297)
T2 sequence (O95551 whole entry): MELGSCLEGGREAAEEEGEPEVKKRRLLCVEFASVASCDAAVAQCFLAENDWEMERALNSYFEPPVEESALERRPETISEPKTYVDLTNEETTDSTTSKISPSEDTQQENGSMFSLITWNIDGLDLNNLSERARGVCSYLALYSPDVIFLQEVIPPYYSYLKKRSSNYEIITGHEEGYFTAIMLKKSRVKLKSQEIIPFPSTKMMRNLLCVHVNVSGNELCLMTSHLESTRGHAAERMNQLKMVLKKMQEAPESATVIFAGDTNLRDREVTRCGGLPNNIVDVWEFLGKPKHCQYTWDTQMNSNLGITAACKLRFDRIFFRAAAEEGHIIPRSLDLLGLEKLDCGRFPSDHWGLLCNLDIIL

[3] = target: T3, Sentrin-specific protease 7 (Homo sapiens, UniProt Q9BQF6); format: functional;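 note: Luminescence-based dose-response confirmation of ultra-high-throughput screening hits, measuring inhibition of SENP7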
T3 sequence (Q9BQF6 whole entry): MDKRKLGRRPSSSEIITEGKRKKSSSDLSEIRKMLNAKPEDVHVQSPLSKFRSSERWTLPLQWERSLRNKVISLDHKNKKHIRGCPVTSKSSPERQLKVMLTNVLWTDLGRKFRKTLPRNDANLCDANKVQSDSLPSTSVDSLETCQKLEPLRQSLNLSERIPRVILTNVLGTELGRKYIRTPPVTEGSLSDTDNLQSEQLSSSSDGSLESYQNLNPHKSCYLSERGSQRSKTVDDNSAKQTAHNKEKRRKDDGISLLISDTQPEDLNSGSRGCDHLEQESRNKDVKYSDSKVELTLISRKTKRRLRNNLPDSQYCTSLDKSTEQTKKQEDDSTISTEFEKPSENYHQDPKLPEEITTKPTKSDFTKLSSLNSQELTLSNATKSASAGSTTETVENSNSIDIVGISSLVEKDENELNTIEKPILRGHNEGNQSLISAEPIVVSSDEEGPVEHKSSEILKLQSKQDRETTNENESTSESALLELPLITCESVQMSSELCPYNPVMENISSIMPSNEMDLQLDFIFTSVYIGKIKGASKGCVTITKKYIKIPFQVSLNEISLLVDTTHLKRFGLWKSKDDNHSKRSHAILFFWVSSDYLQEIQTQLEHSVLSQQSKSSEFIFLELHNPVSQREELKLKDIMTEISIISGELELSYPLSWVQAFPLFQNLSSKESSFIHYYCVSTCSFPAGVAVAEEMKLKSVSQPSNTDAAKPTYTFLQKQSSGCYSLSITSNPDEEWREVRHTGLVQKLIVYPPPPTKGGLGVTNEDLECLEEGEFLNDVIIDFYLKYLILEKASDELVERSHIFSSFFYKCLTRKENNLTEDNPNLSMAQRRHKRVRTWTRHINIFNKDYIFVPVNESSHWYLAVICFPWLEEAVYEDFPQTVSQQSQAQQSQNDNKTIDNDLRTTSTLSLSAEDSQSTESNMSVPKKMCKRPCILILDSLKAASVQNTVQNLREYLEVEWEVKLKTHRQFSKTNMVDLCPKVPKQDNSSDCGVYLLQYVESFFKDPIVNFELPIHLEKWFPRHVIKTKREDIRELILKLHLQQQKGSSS

[4] = target: T4, Replicative DNA helicase DnaB (Mycobacterium tuberculosis, UniProt P9WMR3); test: DnaB intein splicing inhibitors, dose response, biochemical, cell-free fluorescence (AID 449749); format: functional
T4 sequence (P9WMR3 whole entry): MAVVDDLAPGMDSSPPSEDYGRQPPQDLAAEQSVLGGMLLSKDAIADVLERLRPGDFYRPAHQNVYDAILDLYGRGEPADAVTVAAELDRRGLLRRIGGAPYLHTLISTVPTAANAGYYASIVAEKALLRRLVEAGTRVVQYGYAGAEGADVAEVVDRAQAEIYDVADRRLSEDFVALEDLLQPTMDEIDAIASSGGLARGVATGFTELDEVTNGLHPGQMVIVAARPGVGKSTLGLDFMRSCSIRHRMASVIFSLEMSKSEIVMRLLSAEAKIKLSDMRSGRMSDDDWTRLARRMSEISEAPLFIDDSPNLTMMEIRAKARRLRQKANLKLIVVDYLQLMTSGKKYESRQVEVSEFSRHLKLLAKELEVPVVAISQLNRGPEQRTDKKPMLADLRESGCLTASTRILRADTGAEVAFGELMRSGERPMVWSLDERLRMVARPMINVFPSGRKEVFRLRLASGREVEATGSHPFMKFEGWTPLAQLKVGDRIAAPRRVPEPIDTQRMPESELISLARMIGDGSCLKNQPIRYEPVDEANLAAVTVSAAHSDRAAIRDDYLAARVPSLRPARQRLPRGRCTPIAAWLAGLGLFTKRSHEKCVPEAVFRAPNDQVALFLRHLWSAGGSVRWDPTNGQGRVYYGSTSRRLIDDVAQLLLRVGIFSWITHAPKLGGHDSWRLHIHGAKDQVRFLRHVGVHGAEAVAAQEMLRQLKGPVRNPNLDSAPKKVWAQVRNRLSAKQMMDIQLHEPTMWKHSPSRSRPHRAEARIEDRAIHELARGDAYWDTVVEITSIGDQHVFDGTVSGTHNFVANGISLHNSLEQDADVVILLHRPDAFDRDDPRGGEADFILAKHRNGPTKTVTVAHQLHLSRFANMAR

Which IC50 [1] does the source give for COc1ccc(NC(=S)Nc2ccc3nsnc3c2)cc1 here?
Its IC50 is 2.74 µM (active).

What about the IC50 [2] of the same molecule?
The IC50 was 9.93 µM (active).

What about the IC50 [3] of the same molecule?
Its IC50 is 4.08 µM (active).

What about the AC50 [4] of the same molecule?
The AC50 was > 120 µM (inactive).

Which IC50 [1] does the source give for CC(C)(C)c1cc[n+](C2=C([N-]S(=O)(=O)c3ccccc3)C(=O)c3ccccc3C2=O)cc1 here?
The IC50 was 13.6 µM (active).

And the IC50 [3]?
The IC50 was 13.5 µM (active).

And the AC50 [4]?
The AC50 was 9.28 µM (active).

Which IC50 [1] does the source give for O=C1C(=O)c2ccccc2C(O)=C1CCCCl here?
The IC50 was 14.4 µM (active).

And the IC50 [3]?
Its IC50 is 9.05 µM (active).

What about the AC50 [4] of the same molecule?
The AC50 was 6.36 µM (active).

For O=C1C=C(Nc2ccccc2C(=O)O)c2ccccc2C1=O, which IC50 [1] is on record?
Its IC50 is 3.3 µM (active).

And the IC50 [2]?
The IC50 was 6.56 µM (active).

What about the IC50 [3] of the same molecule?
Its IC50 is 7.86 µM (active).

And the AC50 [4]?
The AC50 was 2.21 µM (active).
